Data from ChEMBL document CHEMBL3400058, “Synthesis, anticonvulsant activity and molecular modeling study of some new hydrazinecarbothioamide, benzenesulfonohydrazide, and phenacylacetohydrazide analogues of 4(3H)-quinazolinone” (Bioorg Med Chem Lett, 2015).

Legend:
Mus musculus [1] = assay: Anticonvulsant activity in mouse assessed as delay of death time at 150 mg/kg, ip administered 20 mins prior to PTZ challenge relative to control; type: functional; settings: route intraperitoneal
Mus musculus [2] = assay: Anticonvulsant activity in mouse assessed as decrease in convulsion frequency at 150 mg/kg, ip administered 20 mins prior to PTZ challenge relative to control; type: functional; set-up: scale not given: the % may be the effect or the level left; settings: route intraperitoneal
Mus musculus [3] = assay: Anticonvulsant activity in mouse assessed as prolongation of convulsions onset time at 150 mg/kg, ip administered 20 mins prior to PTZ challenge relative to control; type: functional; settings: route intraperitoneal
Mus musculus [4] = assay: Anticonvulsant activity in mouse assessed as decrease in convulsion frequency at 150 mg/kg, ip administered 20 mins prior to picrotoxin challenge relative to control; type: functional; set-up: scale not given: the % may be the effect or the level left; settings: route intraperitoneal
Mus musculus [5] = assay: Anticonvulsant activity in mouse assessed as prolongation of convulsions onset time at 150 mg/kg, ip administered 20 mins prior to picrotoxin challenge relative to control; type: functional; settings: route intraperitoneal
Mus musculus [6] = assay: Anticonvulsant activity in mouse assessed as delay of death time at 150 mg/kg, ip administered 20 mins prior to picrotoxin challenge relative to control; type: functional; settings: route intraperitoneal
Mus musculus [7] = assay: Anticonvulsant activity in mouse assessed as protection against PTZ-induced convulsions at 50 mg/kg, ip administered 20 mins prior to PTZ challenge relative to control; type: functional; settings: route intraperitoneal
Mus musculus [8] = assay: Anticonvulsant activity in mouse assessed as prolongation of convulsions onset time at 50 mg/kg, ip administered 20 mins prior to PTZ challenge relative to control; type: functional; settings: route intraperitoneal
Mus musculus [9] = assay: Anticonvulsant activity in mouse assessed as decrease in convulsion frequency at 50 mg/kg, ip administered 20 mins prior to PTZ challenge relative to control; type: functional; set-up: scale not given: the % may be the effect or the level left; settings: route intraperitoneal
Mus musculus [10] = assay: Toxicity in mouse at 150 mg/kg, […] 20 mins prior to PTZ challenge relative to control; type: organism-based; set-up: dose 150 mg/kg; settings: in vivo
[11] = Therapeutic index, ratio of LD50 for mouse to ED50 for anticonvulsant activity in mouse; type: organism-based; settings: in vivo, read-out: Ratio LD50/ED50
Mus musculus [12] = species on record: Mus musculus; assay: Protective index, ratio of TD50 for mouse to ED50 for anticonvulsant activity in mouse
Mus musculus [13] = assay: Anticonvulsant activity in mouse assessed as delay of death time at 50 mg/kg, ip administered 20 mins prior to PTZ challenge relative to control; type: functional; settings: route intraperitoneal
Mus musculus [14] = assay: Anticonvulsant activity in mouse assessed as protection against PTZ-induced convulsions at 150 mg/kg, ip administered 20 mins prior to PTZ challenge relative to control; type: functional; settings: route intraperitoneal

SMILES	Activity (Mus musculus [1])	Activity (Mus musculus [2])	Activity (Mus musculus [3])	other results
O=C(CSc1nc2ccc(Cl)cc2c(=O)n1-c1ccccc1)NNC(=S)NCc1ccccc1	145%	0%	114%	
CC(=O)NNC(=O)CSc1nc2ccc(Cl)cc2c(=O)n1-c1ccccc1	216%	48%	186%	
CSc1nc2ccc(Cl)cc2c(=O)n1-c1ccccc1	44%	0%	114%	
COc1cc2nc(SCC(=O)NNC(=S)NCc3ccccc3)n(Cc3ccccc3)c(=O)c2cc1OC	32%	38%	43%	Activity (Mus musculus [4]): 66%; Activity (Mus musculus [5]): 78%; Activity (Mus musculus [6]): 22%
CSc1nc2ccc(Cl)cc2c(=O)n1Cc1ccccc1	5%	61%	114%	Activity (Mus musculus [4]): 91%; Activity (Mus musculus [5]): 36%; Activity (Mus musculus [6]): 0%
O=C(CCc1ccccc1)NNC(=O)CSc1nc2ccc(Cl)cc2c(=O)n1-c1ccccc1		0%	43%	
CCCCC(=O)NNC(=O)CSc1nc2ccc(Cl)cc2c(=O)n1Cc1ccccc1		0%	0%	
CCCC(CCC)C(=O)[O-].[Na+] [VALPROATE SODIUM]				Activity (Mus musculus [7]): 100%
O=C(CSc1nc2ccc(Cl)cc2c(=O)n1-c1ccccc1)NNC(=O)Cc1ccccc1				Activity (Mus musculus [8]): 43%; Activity (Mus musculus [9]): 0%
COc1cc2nc(SCC(=O)NNC(=O)CCc3ccccc3)n(Cc3ccccc3)c(=O)c2cc1OC	0%	81%	114%	
COc1cc2nc(SC)n(Cc3ccccc3)c(=O)c2cc1OC				Activity (Mus musculus [10]): Toxic
CCC(=O)NNC(=O)CSc1nc2ccc(Cl)cc2c(=O)n1-c1ccccc1				selectivity ratio [11]: 24.6; Ratio TD50/ED50 (Mus musculus [12]): 8.5; Activity (Mus musculus [7]): 100%; Activity (Mus musculus [8]): 1471%; Activity (Mus musculus [13]): 636%; Activity (Mus musculus [9]): 74%
O=C(CSc1nc2ccc(Cl)cc2c(=O)n1Cc1ccccc1)NNC(=O)c1ccccc1	75%	23%	185%	
CCC(=O)NNC(=O)CSc1nc2ccc(Cl)cc2c(=O)n1Cc1ccccc1	0%	74%	43%	
COc1cc2nc(SCC(=O)NNC(C)=O)n(Cc3ccccc3)c(=O)c2cc1OC		0%	0%	
O=C(CSc1nc2ccc(Cl)cc2c(=O)n1Cc1ccccc1)NNC(=S)NCc1ccccc1	101%	61%	471%	Activity (Mus musculus [4]): 39%; Activity (Mus musculus [5]): 15%; Activity (Mus musculus [6]): 25%
O=C(CCc1ccccc1)NNC(=O)CSc1nc2ccc(Cl)cc2c(=O)n1Cc1ccccc1	254%	74%	685%	selectivity ratio [11]: 9.8; Ratio TD50/ED50 (Mus musculus [12]): 4.6; Activity (Mus musculus [14]): 100%
CC(=O)NNC(=O)CSc1nc2ccc(Cl)cc2c(=O)n1Cc1ccccc1	303%			selectivity ratio [11]: 9.7; Ratio TD50/ED50 (Mus musculus [12]): 8.7; Activity (Mus musculus [4]): 60%; Activity (Mus musculus [14]): 100%; Activity (Mus musculus [5]): 63%; Activity (Mus musculus [6]): 50%

SMILES	Activity (Mus musculus [1])	Activity (Mus musculus [2])	Activity (Mus musculus [3])	other results
COc1cc2nc(SCC(=O)NNC(=O)Cc3ccccc3)n(Cc3ccccc3)c(=O)c2cc1OC	58%	68%	186%	Activity (Mus musculus [4]): 97%; Activity (Mus musculus [5]): 18%; Activity (Mus musculus [6]): 17%
CCC(=O)NNC(=O)CSc1nc2cc(OC)c(OC)cc2c(=O)n1Cc1ccccc1	216%	81%	471%	selectivity ratio [11]: 5.1; Ratio TD50/ED50 (Mus musculus [12]): 4.1; Activity (Mus musculus [4]): 79%; Activity (Mus musculus [14]): 100%; Activity (Mus musculus [5]): 11%; Activity (Mus musculus [6]): 8%
CCCC(=O)NNC(=O)CSc1nc2ccc(Cl)cc2c(=O)n1-c1ccccc1	75%	82%	43%	
CCCCC(=O)NNC(=O)CSc1nc2cc(OC)c(OC)cc2c(=O)n1Cc1ccccc1		0%	0%	
COc1cc2nc(SCC(=O)NNS(=O)(=O)c3ccc(C)cc3)n(Cc3ccccc3)c(=O)c2cc1OC		0%	43%	
O=C(CSc1nc2ccc(Cl)cc2c(=O)n1Cc1ccccc1)NNC(=O)Cc1ccccc1	47%	61%	43%	
CCCCC(=O)NNC(=O)CSc1nc2ccc(Cl)cc2c(=O)n1-c1ccccc1	47%	87%	114%	
CCCC(=O)NNC(=O)CSc1nc2ccc(Cl)cc2c(=O)n1Cc1ccccc1	14%	61%	78%	Activity (Mus musculus [5]): 0%
Cc1ccc(S(=O)(=O)NNC(=O)CSc2nc3ccc(Cl)cc3c(=O)n2Cc2ccccc2)cc1	47%	74%	43%	
O=C(CSc1nc2ccc(Cl)cc2c(=O)n1-c1ccccc1)NNC(=O)c1ccccc1	0%	87%	114%	
COc1cc2nc(SCC(=O)NNC(=O)c3ccccc3)n(Cc3ccccc3)c(=O)c2cc1OC		0%	0%	
COc1cc2nc(SCC(=O)NNC(=S)Nc3ccccc3)n(Cc3ccccc3)c(=O)c2cc1OC	5%	81%	150%	Activity (Mus musculus [4]): 89%; Activity (Mus musculus [5]): 4%; Activity (Mus musculus [6]): 25%
CCCC(=O)NNC(=O)CSc1nc2cc(OC)c(OC)cc2c(=O)n1Cc1ccccc1	58%	0%	114%	
O=C(CSc1nc2ccc(Cl)cc2c(=O)n1Cc1ccccc1)NNC(=S)Nc1ccccc1		0%	0%	
CCOC(=O)CSc1nc2ccc(Cl)cc2c(=O)n1Cc1ccccc1		0%	0%	Activity (Mus musculus [4]): 25%; Activity (Mus musculus [5]): 5%; Activity (Mus musculus [6]): 17%
CCOC(=O)CSc1nc2ccc(Cl)cc2c(=O)n1-c1ccccc1		0%	0%	
COc1cc2nc(SC)n(-c3ccccc3)c(=O)c2cc1OC	461%	0%	35%	
Cc1ccc(S(=O)(=O)NNC(=O)CSc2nc3ccc(Cl)cc3c(=O)n2-c2ccccc2)cc1	40%	48%	43%	
